According to PMC7402526, “An in vitro quantitative systems pharmacology approach for deconvolving mechanisms of drug-induced, multilineage cytopenias” (PLoS Computational Biology, 2020):

Key:
MK cells (MK-lin) = assay: MLTA, MK: concentration-response and QSP model fit; assay type: cell-based, human; conditions: Homo sapiens, 144 h
Procedure, shortened: (§1)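 Freeze-thawed primary human bone marrow CD34+ cells were cultured 6 days in SFEM II with a cytokine cocktail, drug added on day 0. Subsets were counted by 17-parameter flow cytometry with TruCount beads and normalized to vehicle wells. An Emax QSP model (Emax 0–2, L1 regularization) was fitted to these counts.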

[1] = system: total dead cells (totalDeadCells); assay: MLTA, total dead cells concentration-response; assay type: cell-based; conditions: Homo sapiens, 144 h, 6 days, normalized to vehicle control, read-out: total_dead normalized cell count
Description: (§2) A custom optimized cytokine cocktail was developed using commercially available cytokines (Peprotech, New Jersey) to facilitate simultaneous multi-lineage differentiation and self-renewal of freeze-thawed primary human bone marrow-derived CD34+ cells in SFEM II media (cells and media from StemCell Technologies, Vancouver). Cultures were carried out in ultra-low attachment 96-well plates (Corning, New York) with test article added on day 0 and cultured at 37°C, 85% relative humidity, and 5% CO2 for six days before interrogating drug impact via 17-parameter flow cytometry.
(§3) The flow cytometry panel used to define hematopoietic subsets was composed of CD34-PECy7, CD90-PECY5, CD38-AF488, CD371-PE, CD45Ra-BV421, CD14-BV605, CD42b-AF647, CD10-PEDazzle594, CD235a-PerCPCy5.5 (BioLegend, California), CD15-BUV395, CD41a-APCH7, CD71-BV786 (BD Biosciences, California), and DAPI for dead cell exclusion (ThermoFisher, California). In short, Day 6 cells were harvested, FcR-blocked (FcR binding inhibitor, ThermoFisher), surface-stained, then analyzed in a buffer containing TruCount Control Beads using a BD LSR Fortessa SORP fitted with a high-throughput sampler (BD Biosciences, California). Data was analyzed in Diva 6.0.2 and exported to CSV where after all cell data was transformed to cell per mL then normalized on a per-donor basis to untreated control wells to determine drug impact.
(§4) Donor material was collected and cultured as described above. The number of replicate donor samples per drug ranged from 2–7 and varied per drug (S1 Table). Drug treatment was added at time 0 and cells were maintained in culture for 6 days. Concentrations tested for each drug compound are contained in S1 Table. Concentrations were selected to span a range that is clinically useful. Following treatment, cell populations were measured using flow cytometry. We extracted cell counts from flow cytometry data, normalized to bead counts, and corrected for well volume.
(§5) Each well was normalized to the average of six vehicle control wells. For drugs that were tested across multiple runs of the assay, vehicle-normalized donor data were pooled, and we used the average of these pooled data for further modeling. Normalized data used as model inputs are included in S1 Table.

[2] = system: multi-potent progenitors (MPPs); assay: MLTA, MPPs: concentration-response and QSP model fit; assay type: cell-based, human; conditions: Homo sapiens, 144 h
Procedure, shortened: as §1

[3] = system: total viable cells (totalViableCells); assay: MLTA, total live cells concentration-response; assay type: cell-based; conditions: Homo sapiens, 144 h, 6 days, normalized to vehicle control, read-out: total_live normalized cell count
Description: as §2, §3, §4, §5

[4] = system: lymphocyte progenitors (LymP); assay: MLTA, LymP: concentration-response and QSP model fit; assay type: cell-based, human; conditions: Homo sapiens, Lymphocyte, 144 h
Procedure, shortened: as §1

[5] = system: late erythroid cells (Eryth II); assay: MLTA, ErythII: concentration-response and QSP model fit; assay type: cell-based, human; conditions: Homo sapiens, 144 h
Procedure, shortened: as §1

[6] = system: human bone marrow-derived CD34+ cells differentiated into multiple hematopoietic lineages; assay: MLTA, overall effects across hematopoietic lineages; assay type: cell-based; conditions: QSP model fit; EmaxT > 1.0 = cell-killing
Description: as §2, §3, §4, §5
We implemented drug effects using an Emax model for the drug’s effect on each cell type. The 13 maximum effect parameters (EmaxT,C) are unitless and can vary between 0 and 2 and where a subscript, C, represents one of the previously described 13 cell types. We adapted a traditional Emax model using the equations below. We interpreted EmaxT values less than or equal to one as anti-proliferative, and EmaxT values greater than one as indicating a cell-killing mechanism in addition to anti-proliferation. The relationships for these effects are included in the model using the following equations. Eq 2 describes the drug anti-proliferative effect in the net proliferation rate for a given cell type. Eq 3 describes the cell-killing EmaxCK effect.

granulocytes (Gran-lin) = assay: MLTA, Gran: concentration-response and QSP model fit; assay type: cell-based, human; conditions: Homo sapiens, 144 h
Procedure, shortened: as §1

[7] = system: granulocyte-macrophage progenitor (GMPs); assay: MLTA, GMPs: concentration-response and QSP model fit; assay type: cell-based, human; conditions: Homo sapiens, 144 h, 6 days, normalized to vehicle control, read-out: GMPs normalized cell count
Procedure, shortened: as §1

CCc1cnn2c(NCc3ccc[n+]([O-])c3)cc(N3CCCC[C@H]3CCO)nc12 [dinaciclib]
activity at 0.0002 µM (MK cells (MK-lin); dose 0.2 nM, 6 days, normalized to vehicle control, read-out: MK normalized cell count): 90.3% | activity at 0.001 µM (MK cells (MK-lin); dose 1 nM, 6 days, normalized to vehicle control, read-out: MK normalized cell count): 111% | activity at 0.005 µM (MK cells (MK-lin); dose 5 nM, 6 days, normalized to vehicle control, read-out: MK normalized cell count): 71.8% | activity at 0.025 µM (MK cells (MK-lin); dose 25 nM, 6 days, normalized to vehicle control, read-out: MK normalized cell count): 11.8% | activity at 0.1 µM (MK cells (MK-lin); dose 100 nM, 6 days, normalized to vehicle control, read-out: MK normalized cell count): 0.294% | activity at 0.5 µM (MK cells (MK-lin); dose 500 nM, 6 days, normalized to vehicle control, read-out: MK normalized cell count): 0.526% | activity at 2.5 µM (MK cells (MK-lin); dose 2500 nM, 6 days, normalized to vehicle control, read-out: MK normalized cell count): 0.425% | Emax (MK cells (MK-lin); parameter from QSP model fitting, read-out: Emax_drug_MK): 33.1% | activity at 0.0002 µM ([1]; dose 0.2 nM): 108% | activity at 0.001 µM ([1]; dose 1 nM): 106% | activity at 0.005 µM ([1]; dose 5 nM): 78.9% | activity at 0.025 µM ([1]; dose 25 nM): 34.8% | activity at 0.1 µM ([1]; dose 100 nM): 38.7% | activity at 0.5 µM ([1]; dose 500 nM): 34.1% | activity at 2.5 µM ([1]; dose 2500 nM): 39.6% | activity at 0.0002 µM ([2]; dose 0.2 nM, 6 days, normalized to vehicle control, read-out: MPPs normalized cell count): 94.1% | activity at 0.001 µM ([2]; dose 1 nM, 6 days, normalized to vehicle control, read-out: MPPs normalized cell count): 104% | activity at 0.005 µM ([2]; dose 5 nM, 6 days, normalized to vehicle control, read-out: MPPs normalized cell count): 96.7% | activity at 0.025 µM ([2]; dose 25 nM, 6 days, normalized to vehicle control, read-out: MPPs normalized cell count): 53.4% | activity at 0.1 µM ([2]; dose 100 nM, 6 days, normalized to vehicle control, read-out: MPPs normalized cell count): 2.71% | activity at 0.5 µM ([2]; dose 500 nM, 6 days, normalized to vehicle control, read-out: MPPs normalized cell count): 2.67% | activity at 2.5 µM ([2]; dose 2500 nM, 6 days, normalized to vehicle control, read-out: MPPs normalized cell count): 0.896% | Emax ([2]; parameter from QSP model fitting, read-out: Emax_drug_MPP): 69.4% | viability at 0.0002 µM ([3]; dose 0.2 nM): 95.4% | viability at 0.001 µM ([3]; dose 1 nM): 107% | viability at 0.005 µM ([3]; dose 5 nM): 92.4% | viability at 0.025 µM ([3]; dose 25 nM): 26.1% | viability at 0.1 µM ([3]; dose 100 nM): 0.282% | viability at 0.5 µM ([3]; dose 500 nM): 0.4% | viability at 2.5 µM ([3]; dose 2500 nM): 0.255% | activity at 0.0002 µM ([4]; dose 0.2 nM, 6 days, normalized to vehicle control, read-out: LymP normalized cell count): 89.4% | activity at 0.001 µM ([4]; dose 1 nM, 6 days, normalized to vehicle control, read-out: LymP normalized cell count): 105% | activity at 0.005 µM ([4]; dose 5 nM, 6 days, normalized to vehicle control, read-out: LymP normalized cell count): 99.3% | activity at 0.025 µM ([4]; dose 25 nM, 6 days, normalized to vehicle control, read-out: LymP normalized cell count): 38.3% | activity at 0.1 µM ([4]; dose 100 nM, 6 days, normalized to vehicle control, read-out: LymP normalized cell count): 3.05% | activity at 0.5 µM ([4]; dose 500 nM, 6 days, normalized to vehicle control, read-out: LymP normalized cell count): 7.81% | activity at 2.5 µM ([4]; dose 2500 nM, 6 days, normalized to vehicle control, read-out: LymP normalized cell count): 2.53% | Emax ([4]; parameter from QSP model fitting, read-out: Emax_drug_LymP): 115% | activity at 0.0002 µM ([5]; dose 0.2 nM, 6 days, normalized to vehicle control, read-out: ErythII normalized cell count): 90% | activity at 0.001 µM ([5]; dose 1 nM, 6 days, normalized to vehicle control, read-out: ErythII normalized cell count): 108% | activity at 0.005 µM ([5]; dose 5 nM, 6 days, normalized to vehicle control, read-out: ErythII normalized cell count): 98.7% | activity at 0.025 µM ([5]; dose 25 nM, 6 days, normalized to vehicle control, read-out: ErythII normalized cell count): 23.2% | activity at 0.1 µM ([5]; dose 100 nM, 6 days, normalized to vehicle control, read-out: ErythII normalized cell count): 0.0437% | activity at 0.5 µM ([5]; dose 500 nM, 6 days, normalized to vehicle control, read-out: ErythII normalized cell count): 0.0109% | activity at 2.5 µM ([5]; dose 2500 nM, 6 days, normalized to vehicle control, read-out: ErythII normalized cell count): 0.0201% | Emax ([5]; parameter from QSP model fitting, read-out: Emax_drug_ErythroidII): 7.1% | EmaxT effects across cell types (overall statement) [6]: > 1.0 | activity at 0.0002 µM (granulocytes (Gran-lin); dose 0.2 nM, 6 days, normalized to vehicle control, read-out: Gran normalized cell count): 96.8% | activity at 0.001 µM (granulocytes (Gran-lin); dose 1 nM, 6 days, normalized to vehicle control, read-out: Gran normalized cell count): 120% | activity at 0.005 µM (granulocytes (Gran-lin); dose 5 nM, 6 days, normalized to vehicle control, read-out: Gran normalized cell count): 121% | activity at 0.025 µM (granulocytes (Gran-lin); dose 25 nM, 6 days, normalized to vehicle control, read-out: Gran normalized cell count): 32.8% | activity at 0.1 µM (granulocytes (Gran-lin); dose 100 nM, 6 days, normalized to vehicle control, read-out: Gran normalized cell count): 0.0467% | activity at 0.5 µM (granulocytes (Gran-lin); dose 500 nM, 6 days, normalized to vehicle control, read-out: Gran normalized cell count): 0.0554% | activity at 2.5 µM (granulocytes (Gran-lin); dose 2500 nM, 6 days, normalized to vehicle control, read-out: Gran normalized cell count): 0.0385% | Emax (granulocytes (Gran-lin); parameter from QSP model fitting, read-out: Emax_drug_Gran): 201% | activity at 0.0002 µM ([7]; dose 0.2 nM): 87% | activity at 0.001 µM ([7]; dose 1 nM): 111% | activity at 0.005 µM ([7]; dose 5 nM): 87.6% | activity at 0.025 µM ([7]; dose 25 nM): 40.3% | activity at 0.1 µM ([7]; dose 100 nM): 0.755% | activity at 0.5 µM ([7]; dose 500 nM): 1.71% | activity at 2.5 µM ([7]; dose 2500 nM): 0.744%
